Assay results: patent US20080262026A1, “Therapeutic Agents 684” (AstraZeneca AB, priority 2007, published 2008)
Where two headings read alike, the source gives them in different places.

Tests used:
CB1 receptor = biological target: T1, CB1 receptor (Homo sapiens, UniProt P21554); test: [35S]-GTPγS binding assay, inhibition of CP55940 (EC80) stimulated activity in membranes of cells stably transfected with the CB1 gene; assay type: biochemical
T1 construct: expressed in transfected cells
Procedure: 10 μg of membranes prepared from cells stably transfected with the CB1 gene were suspended in 200 μl of 100 mM NaCl, 5 mM MgCl2, 1 mM EDTA, 50 mM HEPES (pH 7.4), 1 mM DTT, 0.1% BSA and 100 μM GDP. To this was added an EC80 concentration of agonist (CP55940), the required concentration of test compound and 0.1 μCi [^35S]-GTPγS. The reaction was allowed to proceed at 30° C. for 45 min. Samples were then transferred on to GF/B filters using a cell harvester and washed with wash buffer (50 mM Tris (pH 7.4), 5 mM MgCl2, 50 mM NaCl). Filters were then covered with scintilant and counted for the amount of [^35S]-GTPγS retained by the filter.
Activity is measured in the absence of all ligands (minimum activity) or in the presence of an EC80 concentration of CP55940 (maximum activity). These activities are set as 0% and 100% activity respectively. At various concentrations of novel ligand, activity is calculated as a percentage of the maximum activity and plotted. The data are fitted using the equation y=A+((B−A)/1+((C/x)ÚD)) and the IC50 value determined as the concentration required to give half maximal inhibition of GTPγS binding under the conditions used.

[1] = Solubility in dimethyl sulfoxide; assay type: physicochemical; settings: organic solvent dimethyl sulfoxide
Text: The compounds of the present invention have improved solubility in organic solvents compared to compounds in the prior art. […] It would be expected that this increase in solubility in organic solvents would lead to improvements in bioavailability and ease of manufacture and formulation.

[2] = half maximal inhibition of GTPγS binding, EC80 concentration of agonist CP55940, 30° C. 45 min, read-out: IC50

T1 sequence (P21554 whole entry): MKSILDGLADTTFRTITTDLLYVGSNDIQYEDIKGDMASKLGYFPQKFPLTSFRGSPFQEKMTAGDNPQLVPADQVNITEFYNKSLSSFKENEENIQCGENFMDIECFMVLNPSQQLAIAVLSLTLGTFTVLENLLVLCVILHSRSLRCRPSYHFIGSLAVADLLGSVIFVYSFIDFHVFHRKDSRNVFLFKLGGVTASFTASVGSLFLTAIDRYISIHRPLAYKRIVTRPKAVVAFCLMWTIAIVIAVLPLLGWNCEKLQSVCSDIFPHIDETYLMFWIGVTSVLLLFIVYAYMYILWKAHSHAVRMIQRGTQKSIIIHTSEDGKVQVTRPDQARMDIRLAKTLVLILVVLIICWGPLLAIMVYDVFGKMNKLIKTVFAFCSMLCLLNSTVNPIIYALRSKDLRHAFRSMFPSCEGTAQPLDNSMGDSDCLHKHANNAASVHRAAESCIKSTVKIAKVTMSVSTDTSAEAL

| Compound | IC50 (CB1 receptor; [2]) | further results |
| --- | --- | --- |
| Cc1c2c(n(-c3ccc(Cl)cc3Cl)c1-c1ccc(CN3CCC(F)(F)C3)cc1)CCN(N1CCCCC1)C2=O [Example 1, 1-(2,4-dichlorophenyl)-2-{4-[(3,3-difluoropyrrolidin-1-yl)methyl]phenyl}-3-methyl-5-piperidin-1-yl-1,5,6,7-tetrahydro-4H-pyrrolo[3,2-c]pyridin-4-one] | 5.1 nM |  |
| Cc1c2c(n(-c3ccc(Cl)cc3Cl)c1-c1ccc(CN3CC(F)(F)C3)cc1)CCN(N1CCCCC1)C2=O [Example 2, 1-(2,4-dichlorophenyl)-2-{4-[(3,3-difluoroazetidin-1-yl)methyl]phenyl}-3-methyl-5-piperidin-1-yl-1,5,6,7-tetrahydro-4H-pyrrolo[3,2-c]pyridin-4-one] | 7.5 nM |  |
| CCC/C=C/c1ccc(-c2c(C)c3c(n2-c2ccc(Cl)cc2Cl)CCN(N2CCCCC2)C3=O)cc1 [Example 5, 1-(2,4-dichlorophenyl)-3-methyl-2-{4-[pent-1-en-1-yl]phenyl}-5-piperidin-1-yl-1,5,6,7-tetrahydro-4H-pyrrolo[3,2-c]pyridin-4-one] | 2.1 nM |  |
| CCCCCc1ccc(-c2c(C)c3c(n2-c2ccc(Cl)cc2Cl)CCN(N2CCCCC2)C3=O)cc1 [Example 6, 1-(2,4-dichlorophenyl)-3-methyl-2-(4-pentylphenyl)-5-piperidin-1-yl-1,5,6,7-tetrahydro-4H-pyrrolo[3,2-c]pyridin-4-one] |  | IC50 (CB1 receptor): 2.1 nM |
| Cc1c2c(n(-c3ccc(Cl)cc3Cl)c1-c1ccc(Cl)cc1)CCN(N1CCCCC1)C2=O [Example 19 of WO03/027114, 2-(4-chlorophenyl)-1-(2,4-dichlorophenyl)-3-methyl-5-(1-piperidinyl)-1,5,6,7-tetrahydro-4H-pyrrolo-[3,2-c]pyridin-4-one] |  | solubility in dimethyl sulfoxide [1]: insoluble |

Continued, in another order:

| IC50 (CB1 receptor; [2]) | Compound | further results |
| --- | --- | --- |
| 5 nM | Cc1c2c(n(-c3ccc(Cl)cc3Cl)c1-c1ccc(/C=C/CCC(F)(F)F)cc1)CCN(N1CCCCC1)C2=O [Example 3, 1-(2,4-dichlorophenyl)-3-methyl-5-piperidin-1-yl-2-{4-[5,5,5-trifluoropent-1-en-1-yl]phenyl}-1,5,6,7-tetrahydro-4H-pyrrolo[3,2-c]pyridin-4-one] |  |
| 2.5 nM | Cc1c2c(n(-c3ccc(Cl)cc3Cl)c1-c1ccc(CCCCC(F)(F)F)cc1)CCN(N1CCCCC1)C2=O [Example 4, 1-(2,4-dichlorophenyl)-3-methyl-5-piperidin-1-yl-2-[4-(5,5,5-trifluoropentyl)phenyl]-1,5,6,7-tetrahydro-4H-pyrrolo[3,2-c]pyridin-4-one] |  |
